The values below are quoted from earlier work in patent US20220251564A1, “p16INK4a INHIBITOR FOR PREVENTING OR TREATING HUNTINGTON'S DISEASE” (SORBONNE UNIVERSITE, priority 2019, published 2022).

For the series, the system named is neurons. To be noted: in vitro.

With `COc1cc([C@@H]2c3cc4c(cc3[C@@H](O[C@@H]3O[C@@H]5CO[C@@H](C)O[C@H]5[C@H](O)[C@H]3O)[C@H]3COC(=O)[C@H]23)OCO4)cc(OC)c1O` [Etoposide], the activation of neurons entry is recorded as “activate neurons in vitro”.
